Reference: US20130131161A1, “METHODS AND COMPOSITIONS FOR CARDIOVASCULAR DISEASES AND CONDITIONS” (priority 2009, published 2013)

Test system: Human umbilical vein endothelial cells (HUVECs)
Experiment: eNOS activity analysis: NO, ONOO− and NO/ONOO− release from HUVECs of 50 genotyped donors in response to LA-419 (Example 2)
Assay type: cell-based
Settings: for % Change ONOO− (mean ± sd) / % Change NO (mean ± sd) / % Change NO/ONOO− (mean ± sd): LA-419 5 μM vs control; for Fold difference NO production / Fold difference NO/ONOO− ratio: LA-419 5 μM/control; for % Change Ratio, % Change NO/% Change ONOO− (mean ± sd) / Net increase over control NO (mean ± sd) / Net increase over control NO/ONOO− (mean ± sd) / Net increase over control ONOO− (mean ± sd) / Peak release NO (mean ± sd) / Peak release NO/ONOO− (mean ± sd) / Peak release ONOO− (mean ± sd): LA-419 5 μM
Experimental: Concurrent measurements of NO and ONOO^− were carried out with tandem electrochemical nanosensors combined into one working unit with a total diameter of 200-500 nm (FIG. 1). Their design was based on previously developed and well-characterized chemically modified carbon-fiber technology (Malinski and Taha, 1992; Lvovich and Scheeline, 1997). Each of the nanosensors was made by depositing a sensing material on the tip of a carbon fiber (length 4-5 μm, diameter 0.2-0.5 μm). The fibers were sealed with nonconductive epoxy and electrically connected to copper wires with conductive silver epoxy. A conductive film of polymeric nickel (II) tetrakis(3-methoxy-4-hydroxyphenyl)porphyrin for the NO-sensor and polymeric film of Mn (III) [2.2]paracyclophanylporphyrin was used for the ONOO^−-sensor.
A module of NO/ONOO^− nanosensors (diameter 1-2 μm) with a platinum wire (0.1 mm) counter electrode and saturated calomel reference electrode (SCE) were applied. Differential pulse voltammetry (DPV) and amperometry were performed with a computer-based Gamry VFP600 multichannel potentiostat. DPV was used to measure the basal NO and ONOO^− concentrations, and amperometry was used to measure changes in NO and ONOO^− concentrations from its basal level with time. The DPV current at the peak potential characteristic for NO oxidation (0.65 V) and ONOO^− reduction (−0.45 V) was directly proportional to the local concentrations of these compounds in the immediate vicinity of the sensor. Linear calibration curves (current vs. concentration) were constructed for each sensor from 10 nM to 3 μM before and after measurements with aliquots of NO and ONOO^− standard solutions, respectively. The detection limit of the sensors was 1.0 nM.
The quantification of each analyte (concentration in nM) was performed using a maximum current from amperograms and standard calibration curves. A reproducibility of measurements with nanosensors is relatively high (between 5-12%). […] The sensors were slowly raised 5±2 μm from the surface of a single endothelial cell. The eNOS agonist, calcium ionophore A23187 (CaI) as well as the different drugs were then added to the surrounding media at the cell surface with a nanoinjector that was also positioned by a computer controlled-micromanipulator.
This example describes the genotype-specific response of the three major eNOS variants to 1 μM and 5 μM concentrations of LA-419. The three major genetic polymorphisms studied were the Glu298Asp variant (E298D or 894G→T) in exon 7 of […], the −786T→C variant in the promoter region, and the intron 4 polymorphism (VNTR). All of these variants have possible effects on the cardiovascular system and endothelial dysfunction. For this study, human umbilical vein endothelial cells (HUVECs) from 50 donors between 18 and 32 years of age were used.
For the analysis several analysis techniques were employed. First, the effect of genotype on NO and ONOO^− release was explored within the different concentrations of LA-419 (control, 1 μM, 5 μM), calculated as the average peak release (nmols/L) of NO, ONOO^−, and NO/ONOO^−. The effect of genotype on the net increase in NO, ONOO^−, and NO/ONOO^− for LA-419 (1 μM and 5 μM) as compared to control was also measured. In addition, an analysis was done on the effect of genotype on the % change in NO, ONOO^−, and NO/ONOO^− production for LA-419 (1 μM and 5 μM), calculated as:
% Change=[(avg. LA-419−avg. control)/(avg. control)]*100
Finally, an evaluation was undertaken concerning the effect of genotype on the production of NO, ONOO^−, and NO/ONOO^− as the fold difference of control for LA-419 (1 μM and 5 μM), calculated as:
Fold Difference=(avg. LA-419)/(avg. control)
Within each calculation technique the results were compared for statistical significance using a non-parametric ANOVA Kruskal-Wallace test or a non-parametric Mann-Whitney U test. Statistical significance was set at a p-value <0.05 in a two-tailed distribution. […]

[1] = Caucasians, exon 7 major allele homozygote
[2] = Caucasians, exon 7 minor allele carriers
[3] = exon 7 major allele homozygote, all races
[4] = exon 7 minor allele carriers, all races
[5] = HUVECs G894T + T-786C Combination of all genotypes other than G/G + T/T
[6] = HUVECs G894T + T-786C variant G/G + T/C
[7] = HUVECs G894T + T-786C variant G/G + T/T (Reference)
[8] = HUVECs G894T + T-786C variant G/T + C/C
[9] = HUVECs G894T + T-786C variant G/T + T/C
[10] = HUVECs G894T + T-786C variant G/T + T/T
[11] = HUVECs G894T + T-786C variant T/T + C/C
[12] = HUVECs G894T + T-786C variant T/T + T/C

Compound: CC(=O)SC1COC2C(O[N+](=O)[O-])COC12 (stereo not drawn) [LA-419, S-(6-Nitro-oxi-hexahydro-furo[3,2-b]furan-3-1-il)thioacetate]
- % Change ONOO− (mean ± sd) (HUVECs Intron 4 variant b/a): −19.70 (5.79) %
- % Change NO (mean ± sd) (HUVECs Intron 4 variant b/b): 13.52 (6.80) %
- % Change NO/ONOO− (mean ± sd) (HUVECs Intron 4 variant b/b): 42.24 (17.73) %
- % Change ONOO− (mean ± sd) (HUVECs Intron 4 variant b/b): −19.19 (7.76) %
- % Change NO (mean ± sd) (HUVECs Intron 4 variant c/c): 17.36 (0) %
- % Change NO/ONOO− (mean ± sd) (HUVECs Intron 4 variant c/c): 52.87 (0) %
- % Change ONOO− (mean ± sd) (HUVECs Intron 4 variant c/c): −22.99 (0) %
- % Change NO (mean ± sd) (HUVECs T-786C variant C/C): 11.63 (5.99) %
- % Change NO/ONOO− (mean ± sd) (HUVECs T-786C variant C/C): 42.33 (13.21) %
- % Change ONOO− (mean ± sd) (HUVECs T-786C variant C/C): −21.03 (7.77) %
- % Change NO (mean ± sd) (HUVECs T-786C variant T/C): 13.58 (6.82) %
- % Change NO/ONOO− (mean ± sd) (HUVECs T-786C variant T/C): 38.74 (13.67) %
- % Change ONOO− (mean ± sd) (HUVECs T-786C variant T/C): −17.73 (5.53) %
- % Change NO (mean ± sd) (HUVECs T-786C variant T/T): 16.16 (5.97) %
- % Change NO/ONOO− (mean ± sd) (HUVECs T-786C variant T/T): 49.09 (17.76) %
- % Change ONOO− (mean ± sd) (HUVECs T-786C variant T/T): −20.98 (8.19) %
- Fold difference NO production [1]: 1.19±0.07
- Fold difference NO/ONOO− ratio [1]: 1.47±0.12
- Fold difference NO production [2]: 1.11±0.05
- Fold difference NO/ONOO− ratio [2]: 1.35±0.10
- Fold difference NO production (Caucasians, promoter major allele variant): 1.17±0.08
- Fold difference NO production [3]: 1.16±0.06
- Fold difference NO/ONOO− ratio [3]: 1.48±0.18
- Fold difference NO production [4]: 1.13±0.06
- Fold difference NO/ONOO− ratio [4]: 1.39±0.13
- % Change Ratio, % Change NO/% Change ONOO− (mean ± sd) (HUVEC donor Race Asian): −0.50 (0)
- % Change Ratio, % Change NO/% Change ONOO− (mean ± sd) (HUVEC donor Race Black): −0.79 (0.44)
- % Change Ratio, % Change NO/% Change ONOO− (mean ± sd) (HUVEC donor Race Not Reported): −0.59 (0.08)
- Net increase over control NO (mean ± sd) [5]: 46.78 (22.38) nmols/L
- Net increase over control NO/ONOO− (mean ± sd) [5]: −0.87 (0.81)
- Net increase over control ONOO− (mean ± sd) [5]: −68.74 (26.87) nmols/L
- Peak release NO (mean ± sd) [5]: 398.12 (90.43) nmols/L
- Peak release NO/ONOO− (mean ± sd) [5]: 1.43 (0.54)
- Peak release ONOO− (mean ± sd) [5]: 304.95 (81.70) nmols/L
- Net increase over control NO (mean ± sd) [6]: 51.58 (25.77) nmols/L
- Net increase over control NO/ONOO− (mean ± sd) [6]: −0.78 (0.51)
- Net increase over control ONOO− (mean ± sd) [6]: −66.54 (26.77) nmols/L
- Peak release NO (mean ± sd) [6]: 397.25 (102.46) nmols/L
- Peak release NO/ONOO− (mean ± sd) [6]: 1.56 (0.60)
- Peak release ONOO− (mean ± sd) [6]: 277.33 (69.85) nmols/L
- Net increase over control NO (mean ± sd) [7]: 56.59 (19.21) nmols/L
- Net increase over control NO/ONOO− (mean ± sd) [7]: −0.88 (0.54)
- Net increase over control ONOO− (mean ± sd) [7]: −77.59 (31.16) nmols/L
- Peak release NO (mean ± sd) [7]: 399.67 (56.96) nmols/L
- Peak release NO/ONOO− (mean ± sd) [7]: 1.48 (0.48)
- Peak release ONOO− (mean ± sd) [7]: 293.93 (83.07) nmols/L
- Net increase over control NO (mean ± sd) [8]: 46.00 (0) nmols/L
- Net increase over control NO/ONOO− (mean ± sd) [8]: −1.01 (0)
- Net increase over control ONOO− (mean ± sd) [8]: −45.67 (0) nmols/L
- Peak release NO (mean ± sd) [8]: 434.33 (0) nmols/L
- Peak release NO/ONOO− (mean ± sd) [8]: 1.72 (0)
- Peak release ONOO− (mean ± sd) [8]: 252.67 (0) nmols/L
- Net increase over control NO (mean ± sd) [9]: 43.72 (19.86) nmols/L
- Net increase over control NO/ONOO− (mean ± sd) [9]: −0.83 (0.84)
- Net increase over control ONOO− (mean ± sd) [9]: −65.59 (20.60) nmols/L
- Peak release NO (mean ± sd) [9]: 387.90 (86.10) nmols/L
- Peak release NO/ONOO− (mean ± sd) [9]: 1.34 (0.54)
- Peak release ONOO− (mean ± sd) [9]: 318.33 (82.55) nmols/L
- Net increase over control NO (mean ± sd) [10]: 52.83 (20.89) nmols/L
- Net increase over control NO/ONOO− (mean ± sd) [10]: −1.29 (1.15)
- Net increase over control ONOO− (mean ± sd) [10]: −71.50 (46.74) nmols/L
- Peak release NO (mean ± sd) [10]: 433.58 (65.75) nmols/L
- Peak release NO/ONOO− (mean ± sd) [10]: 1.71 (0.21)
- Peak release ONOO− (mean ± sd) [10]: 252.92 (13.69) nmols/L
- Net increase over control NO (mean ± sd) [11]: 35.33 (20.27) nmols/L
- Net increase over control NO/ONOO− (mean ± sd) [11]: −0.36 (0.18)
- Net increase over control ONOO− (mean ± sd) [11]: −94.89 (10.87) nmols/L
- Peak release NO (mean ± sd) [11]: 348.78 (92.48) nmols/L
- Peak release NO/ONOO− (mean ± sd) [11]: 1.19 (0.80)
- Peak release ONOO− (mean ± sd) [11]: 345.56 (123.07) nmols/L
- Net increase over control NO (mean ± sd) [12]: 53.00 (50.91) nmols/L
- Net increase over control NO/ONOO− (mean ± sd) [12]: −1.41 (1.74)
- Net increase over control ONOO− (mean ± sd) [12]: −64.83 (44.08) nmols/L
- Peak release NO (mean ± sd) [12]: 453.00 (178.19) nmols/L
- Peak release NO/ONOO− (mean ± sd) [12]: 1.23 (0.75)
- Peak release ONOO− (mean ± sd) [12]: 397.67 (96.64) nmols/L
- % Change Ratio, % Change NO/% Change ONOO− (mean ± sd) (HUVECs G894T variant G/G): −0.82 (0.40)
- Net increase over control NO (mean ± sd) (HUVECs G894T variant G/G): 55.05 (21.03) nmols/L
- Net increase over control NO/ONOO− (mean ± sd) (HUVECs G894T variant G/G): −0.85 (0.52)
- Net increase over control ONOO− (mean ± sd) (HUVECs G894T variant G/G): −74.19 (29.80) nmols/L
- Peak release NO (mean ± sd) (HUVECs G894T variant G/G): 398.92 (71.74) nmols/L
- Peak release NO/ONOO− (mean ± sd) (HUVECs G894T variant G/G): 1.50 (0.51)
